The text below walks through data of the supplement of paper PMC10307832.

Common to all, as to experiment: relative viability (nuclei count vs DMSO), 5 days (fraction); higher = more cells survive
Compound in assay [1]: CC(C)(C)c1cc(NC(=O)Nc2ccc(-c3cn4c(n3)sc3cc(OCCN5CCOCC5)ccc34)cc2)no1 [Quizartinib] + CC(=O)c1c(C)c2cnc(Nc3ccc(N4CCNCC4)cn3)nc2n(C2CCCC2)c1=O [Palbociclib] (partner 0.5 µM)
The gist of the method: (§1)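 Relative viability is defined as nuclei in treated wells over nuclei in vehicle wells. Duplicate plates were run and medians reported. Lung cancer cell lines in 1536-well plates were dosed by pin tool one day after seeding, with one drug or with a fixed anchor-drug dose plus five library-drug doses (not always all listed) in √10 steps, and nuclei were counted after 5 days.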

Compound in the assay “Quizartinib + OSI-027”: CC(C)(C)c1cc(NC(=O)Nc2ccc(-c3cn4c(n3)sc3cc(OCCN5CCOCC5)ccc34)cc2)no1 [Quizartinib] + COc1cccc2cc(-c3nc([C@H]4CC[C@H](C(=O)O)CC4)n4ncnc(N)c34)[nH]c12 [OSI-027] (partner 0.5 µM)
The procedure, abridged:
as §1

Compound in the assay “Quizartinib + AZD7762”: CC(C)(C)c1cc(NC(=O)Nc2ccc(-c3cn4c(n3)sc3cc(OCCN5CCOCC5)ccc34)cc2)no1 [Quizartinib] + NC(=O)Nc1cc(-c2cccc(F)c2)sc1C(=O)N[C@H]1CCCNC1 [AZD7762] (partner 0.2 µM)
The gist of the method:
as §1

Compound in the assay “Quizartinib + Olaparib”: CC(C)(C)c1cc(NC(=O)Nc2ccc(-c3cn4c(n3)sc3cc(OCCN5CCOCC5)ccc34)cc2)no1 [Quizartinib] + O=C(c1cc(Cc2n[nH]c(=O)c3ccccc23)ccc1F)N1CCN(C(=O)C2CC2)CC1 [Olaparib] (partner 8 µM)
The gist of the method:
as §1

Compound in the assay “YM155 + Pemetrexed”: COCC[n+]1c2c(n(Cc3cnccn3)c1C)C(=O)c1ccccc1C2=O [YM155] + Nc1nc2[nH]cc(CCc3ccc(C(=O)N[C@@H](CCC(=O)O)C(=O)O)cc3)c2c(=O)[nH]1 [Pemetrexed] (partner 0.2 µM)
The procedure, abridged:
as §1

Compound in the assay “YM155 + Olaparib”: COCC[n+]1c2c(n(Cc3cnccn3)c1C)C(=O)c1ccccc1C2=O [YM155] + O=C(c1cc(Cc2n[nH]c(=O)c3ccccc23)ccc1F)N1CCN(C(=O)C2CC2)CC1 [Olaparib] (partner 8 µM)
The gist of the method: as §1

As for NCI-H1648, the relative viability is 0.118 in assay [1] (first compound 0.003162 µM); 0.277 in assay [1] (first compound 0.03162 µM); 0.239 in assay [1] (first compound 0.1 µM); 0.258 with Quizartinib + OSI-027 (first compound 0.01 µM); 0.253 with Quizartinib + OSI-027 (first compound 0.03162 µM); 0.259 in the assay with Quizartinib + OSI-027 (first compound 0.1 µM). In addition, the relative viability was 0.612 in the assay with Quizartinib + AZD7762 (first compound 0.003162 µM); 0.629 with Quizartinib + AZD7762 (first compound 0.03162 µM); 0.821 in the assay with Quizartinib + AZD7762 (first compound 0.1 µM); 0.985 with Quizartinib + Olaparib (first compound 0.003162 µM); 0.604 with Quizartinib + Olaparib (first compound 0.03162 µM); 0.909 with Quizartinib + Olaparib (first compound 0.1 µM). Besides, the relative viability with YM155 + Pemetrexed (first compound 0.006325 µM) was determined as 0.97; in the assay with YM155 + Pemetrexed (first compound 0.02 µM), 0.702; with YM155 + Pemetrexed (first compound 0.06325 µM) it was 0.804; in the assay with YM155 + Olaparib (first compound 0.006325 µM) it was 1.06; with YM155 + Olaparib (first compound 0.02 µM) it was 0.6; with YM155 + Olaparib (first compound 0.06325 µM) it was 0.762.
